Measurements published in US20090162447A1, “Spherically Shaped Substances” (priority 2005, published 2009).
Where “and” joins values, the source holds several entries; their conditions need not be identical. Equal entries are not always repeated. Structures can show the parent of a compound that is named as a salt.

Assays:
Type in all cases: physicochemical
[1] = Surface smoothness from particle images (Scanning Electron Microscopy); settings: as shown in images of the particles
Protocol: An additional estimate of the particles' smoothness was performed by analyzing the samples via Scanning Electron Microscopy (SEM). FIGS. 9A-C are images of the raw sucrose particles (FIG. 9A), sucrose particles of the present embodiments (FIG. 9B) and the prior art particles (FIG. 9C).

[2] = Ratio of optical surface area to BET surface area / rugosity
Text: In an additional embodiment, the smoothness is defined by a ratio between an optical surface area of the particle and a BET surface area thereof.
An optical surface area of the particle is the surface area of the particle as measured optically. Such measurement can be performed, for example, by obtaining an image of the particle using an optical microscope and estimating its surface area, by approximating the shape of the particle to a symmetrical shape. For example, when the shape of the particle is similar to a sphere, its optical surface area can be approximated by 4πR^2, where R is the radius of the particle, as measured from the image. When the shape of the particle is similar to a spheroid, having a long axis a and an aspect ratio of ε, its surface area can be approximated by 2πa^2 ε (ε+t/b), where b is given by b^2=1−ε^2, and t (in radians) is given by sin(t)=b. As will be appreciated by one ordinarily skilled in the art the aspect ratio can also be approximated as the square root of the sphericity defined above.
A BET surface of the particle refers to a surface measured using a method developed by Brunauer, Emmett and Teller and commonly referred to as BET method. According to the BET method, the surface area is determined by allowing the surface to interact with nitrogen molecules and analyzing the corresponding adsorption curves. […]

[3] = Sphericity by optical microscope images and image processing software (Buehler Omnimet)
Protocol: Thus, denoting the area of the image by A and the perimeter of the image by P, the sphericity, s, can be defined as s=4πA/P^2. As will be appreciated by one of ordinary skill in the art, when the image is a perfect circle, A=π(P/2π)^2=P^2/4π and s=1. When the area of the image is 0 (i.e., the image is a line or a curve) s=0. The samples were imaged through a transmission optical microscope (magnification: ×12.5). The images were analyzed by image processing software (Buehler Omnimet®). Each image processing comprised the following steps. In a first step the particles were delineated for 1 cycle; in a second step, dark areas were defined by thresholding; in a third step, the dark areas were filled; in a fourth step, particles smaller than 20×20 pixels were eliminated; in a fifth step border particles were eliminated; and in a sixth step the delineation of the non-eliminated particles were processed by the octagonal kernel of the software for 3 cycles. FIG. 19 is an image showing the raw sucrose particles after image processing. Following image processing the area, A, and perimeter, P, of each particle was measured from the images. The sphericity of each particle was defined as 4πA/P^2.

[4] = BET specific surface area measurement (TriStar 3000 analyzer)
Protocol: A BET surface of the particle refers to a surface measured using a method developed by Brunauer, Emmett and Teller and commonly referred to as BET method. According to the BET method, the surface area is determined by allowing the surface to interact with nitrogen molecules and analyzing the corresponding adsorption curves. The BET method is well known in the art and is found in many publications (to this end see, e.g., S. J. Gregg and K. S. Sing, “Adsorption, Surface Area and Porosity”, Academic Press, London, 1995).
Following drying, a sample of the formed sucrose particles was subjected to BET measurement using a TriStar 3000 analyzer (Micromeritics, Georgia, USA), to obtain a specific surface area for the particles (surface area per unit mass). An averaged value of 0.03 m^2/gr was measured. For comparison, the specific surface area of a sample of prior art particles of similar size (355-500 micrometer Suglets®, purchased from NP Pharm, France), was also measured. The specific surface area of the particles of this sample was 0.27 m^2/gr. Thus, the sucrose particles produced according to the teaching of the present embodiments of the invention are characterized by a specific surface area which is about 9 times smaller than the specific surface area characterizing the prior art. As the average size of the samples was similar, the specific surface was used as a measure of the smoothness of the particles.

[5] = Shape factor and aspect ratio by DSA-10 image analyzer; settings: samples (i)-(iii); for shape factor: 4πA/P^2 by DSA-10 during constant flow of slurry; for aspect ratio: minimal Feret / maximal Feret
Protocol: The sphericity of the particles was also measured using a DSA-10 image analyzer (Ankersmid Ltd., Israel). The analysis was performed during constant flow of slurry containing the particles. Images of about 1000 particles were analyzed by the image analyzer to determine the sphericity of the particles. In these measurements the sphericity was also as defined 4πA/P^2. To distinguish between the sphericity values obtained as determined using the image processing software and the sphericity values obtained using the image analyzer, the latter are referred to below as “shape factor”.
Beside sphericity, the DSA-10 image analyzer was used to characterize the shape of the particles by their aspect ratio, defined as the ratio between the minimal Feret and the maximal Feret of the particles.

[6] = Angle of repose test on tilted smooth tile; settings: tile tilted 1° at a time; angle at which first particles slide
Text: Another definition of the angle of repose is the maximum angle of tilt of a bed of the powder beyond which the powder cannot retain a static pose. To measure the angle of repose according to this definition, the powder of the present embodiments can be placed on a smooth solid bed surface. The bed surface can then be tilted very slowly about the horizontal axis to a maximum angle without the particles sliding. When the bed surface is tilted beyond the maximum angle, sliding occurs, and the angle of the bed surface to the horizontal once the particles begin sliding is defined as the angle of repose. An angle of repose measured by this technique is oftentimes referred to as tilting angle of repose.
The diltiazem hydrochloride particles were subjected to an angle of repose test. The particles were placed on a smooth tile positioned horizontally. The tile was tilted slowly each time at 1° about the horizontal axis. The angle of repose was defined as the angle at which the first particles had slide.

[7] = Flow rate test with Hall flow meter; settings: 5 millimeter diameter nozzle tilted at an angle of 30°
Text: The flowability of the powder of the present embodiments can also be characterized by its flow rate at certain conditions. The flowability can be measured using a suitable flow meter, such as, but not limited to, a Hall flow meter. Thus, according to a preferred embodiment of the present invention the powder of the preset embodiments is capable of maintaining a flow rate of at least 6, more preferably at least 8, more preferably at least 10 gram per square centimeter per second, through a 5 millimeters nozzle tilted at an angle of 30°.
The metformin particles were subjected to a flow rate test using a Hall flow meter having a 5 millimeter diameter nozzle. The nozzle was tilted at an angle of 30°.

[8] = 4πA/P^2, Table 1, magnification ×12.5
[9] = Table 2, samples (i)-(iii), hydrochloride

SMILES	sphericity [3, 9]	shape factor ([5]; hydrochloride)	aspect ratio ([5]; hydrochloride)	sphericity ([3]; Table 2, samples (i)-(iii))	shape factor [5]	aspect ratio [5]	other results
OC[C@H]1O[C@@](CO)(O[C@H]2O[C@H](CO)[C@@H](O)[C@H](O)[C@H]2O)[C@@H](O)[C@@H]1O [rounded 300-600 μm sucrose, sucrose]							surface of the particles (image) [1]: substantially smooth; rugosity ([2]; corresponds to optical/BET surface area ratio): 1.5-3; optical specific surface area ([2]; spherical or spherical-like particle, diameter about 400 micrometer): 0.01 to 0.02 m²/g; sphericity [3, 8]: 0.875 ± 0.027; specific surface area (surface area per unit mass), BET ([4]; dried powder sample, averaged value): 0.03 m^2/gr; BET specific surface ([4]; particles whose average diameter is about 400 micrometer): about 0.03 gr/m^2; specific surface area, times smaller than prior art ([4]; versus 355-500 micrometer Suglets of similar size): about 9 times
COc1ccc([C@@H]2Sc3ccccc3N(CCN(C)C)C(=O)[C@@H]2OC(C)=O)cc1.Cl [rounded dilitiazem hydrochloride above 45 μm] [diltiazem hydrochloride]	0.6572 and 0.6601 and 0.6940	0.8229 and 0.8211 and 0.8368	0.7015 and 0.6986 and 0.7053				
NC(=O)N1c2ccccc2CC(=O)c2ccccc21 [rounded oxcarbazepine, oxcarbazepine]				0.6103 and 0.5707 and 0.4969	0.8138 and 0.7996 and 0.8174	0.5875 and 0.5887 and 0.5829	
OC[C@H]1O[C@@](CO)(O[C@H]2O[C@H](CO)[C@@H](O)[C@H](O)[C@H]2O)[C@@H](O)[C@@H]1O [raw sucrose, sucrose, reference compound]							sphericity [3, 8]: 0.773 ± 0.05
COc1ccc([C@@H]2Sc3ccccc3N(CCN(C)C)C(=O)[C@@H]2OC(C)=O)cc1.Cl [raw dilitiazem hydrochloride, diltiazem hydrochloride, reference compound]	0.5278 and 0.4773 and 0.4954	0.7032 and 0.7056 and 0.6847	0.5416 and 0.5442 and 0.5293				angle of repose [6]: 48 °
NC(=O)N1c2ccccc2CC(=O)c2ccccc21 [raw oxcarbazepine, oxcarbazepine, reference compound]				0.4997 and 0.4760 and 0.4144	0.7789 and 0.7908 and 0.7886	0.6102 and 0.6062 and 0.6221	
COc1ccc([C@@H]2Sc3ccccc3N(CCN(C)C)C(=O)[C@@H]2OC(C)=O)cc1 [diltiazem hydrochloride]							surface of the particles (image) [1]: substantially smooth; angle of repose [6]: 38 °
COc1ccc([C@@H]2Sc3ccccc3N(CCN(C)C)C(=O)[C@@H]2OC(C)=O)cc1.Cl [rounded dilitiazem hydrochloride 20-45 μm] [diltiazem hydrochloride]	0.5106 and 0.5220 and 0.5139	0.8426 and 0.8168 and 0.8467	0.6915 and 0.6935 and 0.6947				
CN(C)C(=N)N=C(N)N [rounded metformin, metformin]				0.7634 and 0.7676 and 0.7344	0.8719 and 0.8739 and 0.8843	0.6791 and 0.6740 and 0.6904	surface of the particles (image) [1]: substantially smooth; flow rate ([7]; listed as rounded metformin particles): 10.2 gr/(cm^2×s)
COc1ccc([C@@H]2Sc3ccccc3N(CCN(C)C)C(=O)[C@@H]2OC(C)=O)cc1.Cl [rounded dilitiazem hydrochloride mix 20-45 μm + 45 μm] [diltiazem hydrochloride]	0.5315 and 0.6004 and 0.5942	0.8383 and 0.8419 and 0.8279	0.6828 and 0.6923 and 0.6731				
CN(C)C(=N)N=C(N)N [raw metformin, metformin, reference compound]				0.6146 and 0.5675 and 0.5720	0.8244 and 0.8214 and 0.8404	0.6900 and 0.6434 and 0.6420	flow rate ([7]; listed as raw metformin particles): no flow was observed
